Earlier results on three compounds are cited in patent US6956029B1, “Solid formulation of glucosamine sulphate” (SCA Lohnherstellungs AG, priority 1999, dated 2005).

Structures are written as SMILES.

For data set [1] the following is noted: first acid dissociation constant.
The conditions of data set [2]: over 30 days at 75% rH/20° C.

As to `O=C(O)CC(O)(CC(=O)O)C(=O)O` [citric acid], in data set [1], the pKa1 was 3.1.

Turning to `N[C@H]1C(O)O[C@H](CO)[C@@H](O)[C@@H]1O.O=S(=O)([O-])O.[Cl-].[K+].[K+]` (stereo partly drawn) [mixed salt with potassium chloride, D-glucosamine sulphate di-potassium chloride], in data set [2], the stability on storage entry is given as “essentially stable”.

`O=C1O[C@H]([C@@H](O)CO)C(O)=C1O` [ascorbic acid]: in data set [1], the pKa1 is recorded as 4.1.
